According to ChEMBL document CHEMBL1154513, “Design and synthesis of 4-aryl-4-oxobutanoic acid amides as calpain inhibitors” (Bioorg Med Chem Lett, 2009):

Target: T1, Calpain-1 catalytic subunit (Homo sapiens, UniProt P07384)
T1 sequence (P07384 whole entry): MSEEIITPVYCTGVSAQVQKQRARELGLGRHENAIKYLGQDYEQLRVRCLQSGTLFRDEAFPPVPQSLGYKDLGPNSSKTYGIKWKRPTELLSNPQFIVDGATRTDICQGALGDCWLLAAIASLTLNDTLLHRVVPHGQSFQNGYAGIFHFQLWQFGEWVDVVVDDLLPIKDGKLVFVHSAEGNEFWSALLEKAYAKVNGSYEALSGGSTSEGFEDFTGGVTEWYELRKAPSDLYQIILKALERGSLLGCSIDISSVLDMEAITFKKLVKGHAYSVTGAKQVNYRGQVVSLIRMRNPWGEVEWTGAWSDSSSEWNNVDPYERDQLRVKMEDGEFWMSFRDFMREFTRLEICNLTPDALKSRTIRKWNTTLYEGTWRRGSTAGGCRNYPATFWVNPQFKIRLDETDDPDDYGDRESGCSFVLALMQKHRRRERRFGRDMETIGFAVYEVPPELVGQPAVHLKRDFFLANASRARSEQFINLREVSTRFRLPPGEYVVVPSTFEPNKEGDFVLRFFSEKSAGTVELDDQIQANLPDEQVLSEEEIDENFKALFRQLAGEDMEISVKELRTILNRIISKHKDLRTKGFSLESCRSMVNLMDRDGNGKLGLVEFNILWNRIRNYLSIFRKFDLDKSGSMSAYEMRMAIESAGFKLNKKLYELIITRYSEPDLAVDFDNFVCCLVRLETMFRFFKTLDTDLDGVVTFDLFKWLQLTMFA
Assay: Inhibition of human erythrocytes mu-calpain

Row | IC50 | Structure (SMILES)
1 | 13800 nM | O=C(CCC(=O)c1ccccc1O)N[C@@H](Cc1ccccc1)C(=O)C(=O)NCc1ccccc1
2 | 1180 nM | COc1ccc(C(=O)CCC(=O)N[C@@H](Cc2ccccc2)C(=O)C(N)=O)c(OC)c1
3 | 5730 nM | O=C(CCC(=O)c1ccc(O)cc1O)N[C@@H](Cc1ccccc1)C(=O)C(=O)NCc1ccccc1
4 | 3770 nM | COc1ccc(OC)c(C(=O)CCC(=O)N[C@@H](Cc2ccccc2)C(=O)C(=O)NCc2ccccc2)c1
5 | 340 nM | COCOc1ccccc1C(=O)CCC(=O)N[C@@H](Cc1ccccc1)C(=O)C(N)=O
6 | 700 nM | COCOc1cc(OC)ccc1C(=O)CCC(=O)N[C@@H](Cc1ccccc1)C(=O)C(N)=O
7 | 540 nM | COc1ccccc1C(=O)CCC(=O)N[C@@H](Cc1ccccc1)C(=O)C(N)=O
8 | 2090 nM | COc1ccc(OC)c(C(=O)CCC(=O)N[C@@H](Cc2ccccc2)C(=O)C(=O)NCCc2ccccc2)c1
9 | 4290 nM | COCOc1ccccc1C(=O)CCC(=O)N[C@@H](Cc1ccccc1)C(=O)C(=O)NCc1ccccc1
10 | 950 nM | COc1ccc(CCNC(=O)C(=O)[C@H](Cc2ccccc2)NC(=O)CCC(=O)c2cc(OC)ccc2OC)cc1
11 | 4250 nM | COCOc1cc(OC)ccc1C(=O)CCC(=O)N[C@@H](Cc1ccccc1)C(=O)C(=O)NCc1ccccc1
12 | 2350 nM | COc1ccc(CNC(=O)C(=O)[C@H](Cc2ccccc2)NC(=O)CCC(=O)c2cc(OC)ccc2OC)cc1
13 | 1640 nM | COc1ccc(OC)c(C(=O)CCC(=O)N[C@@H](Cc2ccccc2)C(=O)C(=O)NCc2ccc(OC)c(OC)c2)c1
14 | 8000 nM | COc1ccc(OC)c(CCCC(=O)N[C@@H](Cc2ccccc2)C(=O)C(=O)NCc2ccccc2)c1
15 | 1860 nM | COc1ccc(OC)c(CCCC(=O)N[C@@H](Cc2ccccc2)C(=O)C(N)=O)c1
16 | 6250 nM | O=C(CCC(=O)c1ccccc1)N[C@@H](Cc1ccccc1)C(=O)C(=O)NCc1ccccc1
17 | 3200 nM | NC(=O)C(=O)[C@H](Cc1ccccc1)NC(=O)CCC(=O)c1ccccc1
18 | 520 nM | COc1ccc(OC)c(C(=O)CCC(=O)N[C@@H](Cc2ccccc2)C(=O)C(N)=O)c1
19 | 2130 nM | COc1ccc(OC)c(C(=O)CCC(=O)N[C@@H](Cc2ccccc2)C(=O)C(=O)NCCc2ccc(OC)c(OC)c2)c1
20 | 13000 nM | COc1ccc(C(=O)CCC(=O)N[C@@H](Cc2ccccc2)C(=O)C(=O)NCc2ccccc2)c(O)c1
21 | 6160 nM | COc1ccc(C(=O)CCC(=O)N[C@@H](Cc2ccccc2)C(=O)C(=O)NCc2ccccc2)c(OC)c1
22 | 3330 nM | COc1ccccc1C(=O)CCC(=O)N[C@@H](Cc1ccccc1)C(=O)C(=O)NCc1ccccc1
